Test results taken from ChEMBL document CHEMBL1201862, “PubChem BioAssay data set” (2004).
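96-well plates; 48 h exposure; 5 concentrations. Endpoints by linear interpolation between flanking doses. Not reached: highest tested concentration assigned. At the GI50, growth is halved.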 The source made the active and inactive calls. No stated cut-off is given here; in the data, active = GI50 up to about 1.1 µM and inactive = higher.

What was measured:
Assay in all cases: DTP human tumour cell line panel, 48 h
[1] = test system: 786-0
[2] = test system: A498
[3] = test system: A549
[4] = test system: ACHN
[5] = test system: BT-549
[6] = test system: CAKI-1
[7] = test system: CCRF-CEM
[8] = test system: COLO 205
[9] = test system: DU-145
[10] = test system: EKVX
[11] = test system: HCC 2998
[12] = test system: HCT-116
[13] = test system: HCT-15
[14] = test system: HL-60
[15] = test system: HOP-62
[16] = test system: HT-29
[17] = test system: Hs-578T
[18] = test system: IGROV-1
[19] = test system: K562
[20] = test system: KM12
[21] = test system: M14
[22] = test system: MCF7
[23] = test system: MDA-MB-231
[24] = test system: MDA-N
[25] = test system: MOLT-4
[26] = test system: Malme-3M
[27] = test system: NCI-H226
[28] = test system: NCI-H23
[29] = test system: NCI-H460
[30] = test system: NCI-H522
[31] = test system: NCI/ADR-RES
[32] = test system: OVCAR-3
[33] = test system: OVCAR-4
[34] = test system: OVCAR-5
[35] = test system: OVCAR-8
[36] = test system: PC-3
[37] = test system: SF-268
[38] = test system: SF-295
[39] = test system: SF-539
[40] = test system: SK-MEL-28
[41] = test system: SK-MEL-5
[42] = test system: SK-OV-3
[43] = test system: SN12C
[44] = test system: SNB-19
[45] = test system: SNB-75
[46] = test system: SR
[47] = test system: SW-620
[48] = test system: T47D
[49] = test system: TK-10
[50] = test system: U-251
[51] = test system: UACC-257
[52] = test system: UACC-62
[53] = test system: UO-31
[54] = test system: HOP-92
[55] = test system: LOX IMVI
[56] = test system: MDA-MB-435
[57] = test system: RPMI-8226
[58] = test system: RXF 393
[59] = test system: SK-MEL-2

## FC(F)(F)c1cccc(COCCN2CCN(Cc3cccc(C(F)(F)F)c3)CC2)c1
[1]
  GI50: 15.3 µM (inactive)
[2]
  GI50: 14.9 µM (inactive)
[3]
  GI50: 16.2 µM (inactive)
[4]
  GI50: 15.7 µM (inactive)
[5]
  GI50: 15.6 µM (inactive)
[6]
  GI50: 17.5 µM (inactive)
[7]
  GI50: 14.1 µM (inactive)
[8]
  GI50: 15.7 µM (inactive)
[9]
  GI50: 17 µM (inactive)
[10]
  GI50: 11.1 µM (inactive)
[11]
  GI50: 17 µM (inactive)
[12]
  GI50: 14.4 µM (inactive)
[13]
  GI50: 16.2 µM
[14]
  GI50: 36.6 µM (inactive)
[15]
  GI50: 20 µM (inactive)
[16]
  GI50: 21.7 µM (inactive)
[17]
  GI50: 19.5 µM (inactive)
[18]
  GI50: 15.6 µM (inactive)
[19]
  GI50: 11.8 µM (inactive)
[20]
  GI50: 18.1 µM (inactive)
[21]
  GI50: 30.1 µM (inactive)
[22]
  GI50: 15.7 µM (inactive)
[23]
  GI50: 19.3 µM (inactive)
[24]
  GI50: 15.9 µM (inactive)
[25]
  GI50: 7.91 µM (inactive)
[26]
  GI50: 8.09 µM (inactive)
[27]
  GI50: 17 µM (inactive)
[28]
  GI50: 17.9 µM (inactive)
[29]
  GI50: 16.3 µM (inactive)
[30]
  GI50: 13 µM (inactive)
[31]
  GI50: 18.6 µM (inactive)
[32]
  GI50: 20 µM (inactive)
[33]
  GI50: 17.7 µM (inactive)
[34]
  GI50: 16.7 µM (inactive)
[35]
  GI50: 18.7 µM (inactive)
[36]
  GI50: 9.33 µM (inactive)
[37]
  GI50: 15.3 µM (inactive)
[38]
  GI50: 19.7 µM (inactive)
[39]
  GI50: 18 µM (inactive)
[40]
  GI50: 17.8 µM (inactive)
[41]
  GI50: 15.8 µM (inactive)
[42]
  GI50: 17.3 µM (inactive)
[43]
  GI50: 18.5 µM (inactive)
[44]
  GI50: 15.6 µM (inactive)
[45]
  GI50: 13.5 µM (inactive)
[46]
  GI50: 23.4 µM (inactive)
[47]
  GI50: 13.1 µM (inactive)
[48]
  GI50: 16.3 µM (inactive)
[49]
  GI50: 13.7 µM (inactive)
[50]
  GI50: 18.1 µM (inactive)
[51]
  GI50: 17.4 µM (inactive)
[52]
  GI50: 15.3 µM (inactive)
[53]
  GI50: 12.3 µM (inactive)

## C[C@H]1S[C@H](c2c(Cl)cccc2Cl)N2Cc3ccccc3N=C12
[1]
  GI50: 8.49 µM (inactive)
[2]
  GI50: 24.5 µM (inactive)
[3]
  GI50: 15.2 µM (inactive)
[4]
  GI50: 12.4 µM (inactive)
[5]
  GI50: 28.2 µM (inactive)
[6]
  GI50: 40.6 µM (inactive)
[7]
  GI50: 21 µM (inactive)
[8]
  GI50: 11.1 µM (inactive)
[9]
  GI50: 13.1 µM (inactive)
[10]
  GI50: 10.2 µM (inactive)
[11]
  GI50: 14.4 µM (inactive)
[12]
  GI50: 4.35 µM (inactive)
[13]
  GI50: 14.9 µM
[14]
  GI50: 5.9 µM (inactive)
[15]
  GI50: 14 µM (inactive)
[54]
  GI50: 17.9 µM (inactive)
[17]
  GI50: 10.8 µM (inactive)
[18]
  GI50: 12.1 µM (inactive)
[19]
  GI50: 25.7 µM (inactive)
[20]
  GI50: 12 µM (inactive)
[55]
  GI50: 12.9 µM (inactive)
[21]
  GI50: 11.6 µM (inactive)
[22]
  GI50: 14.2 µM (inactive)
[23]
  GI50: 23.9 µM (inactive)
[56]
  GI50: 14.3 µM (inactive)
[24]
  GI50: 21 µM (inactive)
[25]
  GI50: 8.83 µM (inactive)
[28]
  GI50: 11 µM (inactive)
[29]
  GI50: 11.3 µM (inactive)
[32]
  GI50: 11.4 µM (inactive)
[33]
  GI50: 29.8 µM (inactive)
[34]
  GI50: 12 µM (inactive)
[36]
  GI50: 14.5 µM (inactive)
[57]
  GI50: 16 µM (inactive)
[58]
  GI50: 14.1 µM (inactive)
[37]
  GI50: 14.2 µM (inactive)
[38]
  GI50: 9.16 µM (inactive)
[39]
  GI50: 14.7 µM (inactive)
[59]
  GI50: 10.1 µM (inactive)
[41]
  GI50: 10.2 µM (inactive)
[42]
  GI50: 17.7 µM (inactive)
[43]
  GI50: 29.2 µM (inactive)
[44]
  GI50: 10.3 µM (inactive)
[45]
  GI50: 14.1 µM (inactive)
[46]
  GI50: 8.07 µM (inactive)
[47]
  GI50: 25.1 µM (inactive)
[48]
  GI50: 12.4 µM (inactive)
[49]
  GI50: 17 µM (inactive)
[50]
  GI50: 23.4 µM (inactive)
[51]
  GI50: 16.6 µM (inactive)
[52]
  GI50: 9.82 µM (inactive)
[53]
  GI50: 12.4 µM (inactive)

## CC1(C(=O)O)C[C@](C)(C(=O)OCc2ccccc2)C[C@](C)(C(=O)OCc2ccccc2)C1 (stereo partly specified)
[1]
  GI50: 32 µM (inactive)
[3]
  GI50: 35.6 µM (inactive)
[4]
  GI50: 22.9 µM (inactive)
[5]
  GI50: 26.5 µM (inactive)
[6]
  GI50: 25.4 µM (inactive)
[7]
  GI50: 34.3 µM (inactive)
[8]
  GI50: 18.5 µM (inactive)
[9]
  GI50: 29.8 µM (inactive)
[10]
  GI50: 25.1 µM (inactive)
[11]
  GI50: 27 µM (inactive)
[12]
  GI50: 24.1 µM (inactive)
[13]
  GI50: 25.5 µM
[14]
  GI50: 22.4 µM (inactive)
[15]
  GI50: 30.5 µM (inactive)
[54]
  GI50: 19.6 µM (inactive)
[16]
  GI50: 31.8 µM (inactive)
[17]
  GI50: 30.3 µM (inactive)
[18]
  GI50: 22.8 µM (inactive)
[19]
  GI50: 37 µM (inactive)
[20]
  GI50: 31.2 µM (inactive)
[55]
  GI50: 30.8 µM (inactive)
[21]
  GI50: 45.6 µM (inactive)
[22]
  GI50: 34.1 µM (inactive)
[56]
  GI50: 40.5 µM (inactive)
[24]
  GI50: 36 µM (inactive)
[25]
  GI50: 25.4 µM (inactive)
[26]
  GI50: 63.2 µM (inactive)
[27]
  GI50: 27.3 µM (inactive)
[28]
  GI50: 25.1 µM (inactive)
[29]
  GI50: 23.9 µM (inactive)
[30]
  GI50: 21.6 µM (inactive)
[31]
  GI50: 29.4 µM (inactive)
[32]
  GI50: 26.4 µM (inactive)
[33]
  GI50: 39.8 µM (inactive)
[34]
  GI50: 34.3 µM (inactive)
[35]
  GI50: 34.5 µM (inactive)
[36]
  GI50: 26.2 µM (inactive)
[57]
  GI50: 26.2 µM (inactive)
[58]
  GI50: 21.6 µM (inactive)
[37]
  GI50: 47.9 µM (inactive)
[38]
  GI50: 21.2 µM (inactive)
[39]
  GI50: 25.8 µM (inactive)
[40]
  GI50: 50.2 µM (inactive)
[59]
  GI50: 17.5 µM (inactive)
[41]
  GI50: 32.7 µM (inactive)
[42]
  GI50: 32.6 µM (inactive)
[43]
  GI50: 30.2 µM (inactive)
[44]
  GI50: 45.7 µM (inactive)
[45]
  GI50: 13.7 µM (inactive)
[46]
  GI50: 29.1 µM (inactive)
[47]
  GI50: 47 µM (inactive)
[48]
  GI50: 35.2 µM (inactive)
[49]
  GI50: 43.3 µM (inactive)
[51]
  GI50: 38.9 µM (inactive)
[52]
  GI50: 19 µM (inactive)
[53]
  GI50: 21.9 µM (inactive)
